Test system: male Long-Evans hooded rats
Assay: two-bottle ethanol preference test (ethanol intake) after i.p. neuroactive steroid
Type: in vivo, rat
Conditions: for ethanol intake vs baseline / volume of ethanol intake vs baseline: 10 and 56 mg/kg i.p. 15 min before 30-min session; for water intake: 10 and 56 mg/kg i.p.; for effect on ethanol intake (oral self administration of ethanol): summary statement, twenty-two male Long-Evans hooded rats
Method: Upon arrival, these subjects were housed 4 per cage and provided a diet of standard rodent chow ad libitum (Rodent Diet 5001, PMI Inc., St. Louis, Mo., USA) until postnatal day (hereinafter “PD”) 70. From PD 71 forward, the subjects were housed individually and maintained at 95% of their free-feeding weight during which a saccharin-fading procedure was conducted. Water was provided ad libitum in the home cage except during the experimental sessions. The home cage was made of polypropylene plastic and contained hardwood chip bedding. The colony room was maintained at 21±2 C.° with 50±10% relative humidity on a 14L:10D (light/dark) cycle (lights on 06:00 hours (h); lights off 20:00 h). Following training under the saccharin-fading procedure, the subjects were returned to ad libitum feeding conditions for 73 (minimum) to 89 (maximum) days during which an ethanol concentration-effect curve was established. After this curve was obtained, subjects were maintained at 95% of their free-feeding weight for the rest of the study. Ethanol preference training and experimental sessions were conducted daily during the light cycle between the hours of 12:00 h and 14:00 h. Subjects used in these studies were maintained in accordance with the Institutional Animal Care and Use Committee, Louisiana State University Health Sciences Center, and in compliance with the guidelines of the National Institute of Health Guide for Care and Use of Laboratory Animal Resources (publication No. 85-23, revised 1996).
While still housed 4 per cage, subjects were randomly divided into two groups, a group that received ethanol between PD 35 and 63 (adolescent ethanol group) and a group that received saline during the same postnatal period (adolescent saline group). The adolescent ethanol group (n=11) received 2 g/kg of ethanol intraperitoneally (hereinafter “i.p.”) every other day, whereas the adolescent saline group (n=11) received an equal volume of saline every other day, for a total of 15 injections.
Subjects were trained to consume ethanol orally using a modified saccharin/ethanol fading procedure (Samson, 1986; Leonard et al., 2006) starting on PD 75. Prior to each daily training session, animals were weighed and then returned to their home cage. Water bottles were removed and replaced for 30 min with 50-ml plastic centrifuge tubes containing a saccharin/ethanol solution and fitted with a rubber stopper and metal sipper tube. At the end of the 30-min session, the drinking tubes were removed, water bottles were replaced, and the volume of the solution consumed was determined by weighing the tubes (i.e., [(weight prior to the session—weight after the session)-0.4 ml)]. All solutions were prepared fresh daily. Rats initially received a 0.2% sodium saccharin(weight (g of sodium saccharin)/volume (100 mL solution))/0% ethanol (volume (mL of alcohol)/volume (100 mL solution)) solution that was gradually replaced until a solution of 0% sodium saccharin/10% ethanol was achieved. After a subject acquired stable saccharin/ethanol intake (±20% of the mean for 3 consecutive days) or a maximum of 8 days elapsed, the next sodiumsaccharin/ethanol solution was presented. Solutions were presented in the following order: 0.2% saccharin/0% ethanol, 0.15% saccharin/0.5% ethanol, 0.125% saccharin/1% ethanol, 0.1% saccharin/2% ethanol, 0.05% saccharin/5% ethanol, 0.01% saccharin/8% ethanol, and 0% saccharin/10% ethanol. Training, which took 40-57 sessions, and all subsequent testing were conducted 7 days per week.
After a stable baseline of ethanol drinking was established with a 10% ethanol solution, a concentration-effect curve for ethanol and water consumption was established using the standard two-bottle preference test. During these tests, subjects were allowed simultaneous access to two drinking tubes daily for 60 min in their home cage. […]

Row | Compound | ethanol intake vs baseline (18% ethanol) | volume of ethanol intake vs baseline (18% ethanol) | water intake (30-min preference session) | intake of 18% ethanol solution vs vehicle, after stability criterion met (10 mg/kg i.p., Holm-Sidak post-hoc, n=22) | sedative effects (highest dose of pregnanolone) | intake of 18% ethanol solution, first day of injection, comparison between doses (pregnanolone 3.2 mg/kg i.p. vs 1.8, 5.6 and 10 mg/kg, p<0.05) | intake of 18% ethanol solution vs vehicle, first day of injection (pregnanolone 1-10 mg/kg i.p., 30-min preference session, n=22) | effect on ethanol intake (oral self administration of ethanol) | ethanol intake volume (56 mg/kg i.p., every ethanol concentration except the 18% concentration) | ethanol intake, first day of injection (100 mg/kg i.p. (highest dose), 18% ethanol, p<0.001, n=22) | shift of ethanol concentration-effect curve (10, 32 and 56 mg/kg i.p. with ethanol 3.2-32%, p<0.05) | ethanol intake at varying ethanol concentrations (10 and 32 mg/kg i.p., both doses comparable) | ethanol intake vs vehicle, after stability criterion met (10 to 100 mg/kg i.p., 18% ethanol, p<0.05, n=22)
1 | CC(=O)OC1CC[C@@]2(C)C(=CC(=O)[C@@H]3[C@@H]2CC[C@]2(C)C(=O)CC[C@@H]32)C1 (some centres unmarked) [7-keto-DHEA, 3-acetyl-7-oxo-dehydroepiandrosterone] | dose-dependent decreases | dose-dependent decreases | not significantly different | – | – | – | – | – | – | – | – | – | –
2 | CC(=O)[C@H]1CC[C@H]2[C@@H]3CC[C@@H]4C[C@H](O)CC[C@]4(C)[C@H]3CC[C@]12C [pregnanolone, 5β-pregnan-3α-ol-20-one] | – | – | – | significantly differed from vehicle | produced sedative effects | significantly higher | none of the effects of dose were different from vehicle | no apparent effect on ethanol intake | – | – | – | – | –
3 | C[C@]12CC[C@H](O)CC1=CC[C@@H]1[C@@H]2CC[C@]2(C)C(=O)CC[C@@H]12 [DHEA, 5-androstene-3β-ol-17-one] | dose-dependent decreases | dose-dependent decreases | not significantly different | – | – | – | – | markedly reduce oral self administration of ethanol | below 1 ml | significant effect | shifted downward significantly | decreased the intake of ethanol concentrations ranging from 3.2 and 18% | significantly decreased intake
